Test results taken from ChEMBL document CHEMBL1201862, “PubChem BioAssay data set” (2004).
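96-well plates; 48 h exposure; 5 concentrations. Endpoints by linear interpolation between flanking doses. Not reached: highest tested concentration assigned. At the GI50, growth is halved.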 The source made the active and inactive calls. Rule as the data show it: active = GI50 up to about 1.1 µM and inactive = higher.

What was measured:
Assay in all cases: NCI-60 cell line screen, 48 h
[1] = test system: SK-MEL-2
[2] = test system: MDA-MB-231
[3] = test system: HCC 2998
[4] = test system: RPMI-8226
[5] = test system: HCT-116
[6] = test system: NCI-H460
[7] = test system: SF-268
[8] = test system: CCRF-CEM
[9] = test system: A549
[10] = test system: SK-OV-3
[11] = test system: NCI/ADR-RES
[12] = test system: SK-MEL-5
[13] = test system: COLO 205
[14] = test system: MCF7
[15] = test system: PC-3
[16] = test system: NCI-H23
[17] = test system: Hs-578T
[18] = test system: CAKI-1
[19] = test system: A498
[20] = test system: DU-145
[21] = test system: OVCAR-4
[22] = test system: RXF 393
[23] = test system: MDA-MB-435
[24] = test system: OVCAR-3
[25] = test system: HCT-15
[26] = test system: EKVX
[27] = test system: NCI-H226
[28] = test system: SR
[29] = test system: MOLT-4
[30] = test system: SW-620
[31] = test system: Malme-3M
[32] = test system: SF-295
[33] = test system: HOP-62
[34] = test system: UACC-257
[35] = test system: BT-549
[36] = test system: MDA-N
[37] = test system: ACHN
[38] = test system: SNB-19
[39] = test system: SK-MEL-28
[40] = test system: U-251
[41] = test system: M14
[42] = test system: NCI-H522
[43] = test system: TK-10
[44] = test system: SN12C
[45] = test system: KM12
[46] = test system: IGROV-1
[47] = test system: OVCAR-5
[48] = test system: K562
[49] = test system: LOX IMVI
[50] = test system: OVCAR-8
[51] = test system: 786-0
[52] = test system: HT-29
[53] = test system: HL-60
[54] = test system: SF-539
[55] = test system: UACC-62
[56] = test system: SNB-75
[57] = test system: T47D
[58] = test system: HOP-92
[59] = test system: UO-31

## COc1ccc(N2C(=O)C3c4[nH]c5ccc(Br)cc5c4C4CCC(C(C)(C)C)CC4C3C2=O)cc1 (stereo not drawn)
[1]
  GI50: > 100 µM (inactive)
[2]
  GI50: 82 µM (inactive)
[3]
  GI50: > 100 µM (inactive)
[4]
  GI50: > 100 µM (inactive)
[5]
  GI50: > 100 µM (inactive)
[6]
  GI50: > 100 µM (inactive)
[7]
  GI50: > 100 µM (inactive)
[8]
  GI50: > 100 µM (inactive)
[9]
  GI50: > 100 µM (inactive)
[10]
  GI50: > 100 µM (inactive)
[11]
  GI50: > 100 µM (inactive)
[12]
  GI50: > 100 µM (inactive)
[13]
  GI50: > 100 µM (inactive)
[14]
  GI50: > 100 µM (inactive)
[15]
  GI50: > 100 µM (inactive)
[16]
  GI50: > 100 µM (inactive)
[17]
  GI50: > 100 µM (inactive)
[18]
  GI50: > 100 µM (inactive)
[19]
  GI50: > 100 µM (inactive)
[20]
  GI50: > 100 µM (inactive)
[21]
  GI50: > 100 µM (inactive)
[22]
  GI50: > 100 µM (inactive)
[23]
  GI50: > 100 µM (inactive)
[24]
  GI50: > 100 µM (inactive)
[25]
  GI50: > 100 µM
[26]
  GI50: > 100 µM (inactive)
[27]
  GI50: > 100 µM (inactive)
[28]
  GI50: > 100 µM (inactive)
[29]
  GI50: > 100 µM (inactive)
[30]
  GI50: > 100 µM (inactive)
[31]
  GI50: 91.8 µM (inactive)
[32]
  GI50: > 100 µM (inactive)
[33]
  GI50: > 100 µM (inactive)
[34]
  GI50: > 100 µM (inactive)
[35]
  GI50: > 100 µM (inactive)
[36]
  GI50: > 100 µM (inactive)
[37]
  GI50: > 100 µM (inactive)
[38]
  GI50: > 100 µM (inactive)
[39]
  GI50: > 100 µM (inactive)
[40]
  GI50: > 100 µM (inactive)
[41]
  GI50: 94.2 µM (inactive)
[42]
  GI50: > 100 µM (inactive)
[43]
  GI50: > 100 µM (inactive)
[44]
  GI50: > 100 µM (inactive)
[45]
  GI50: > 100 µM (inactive)
[46]
  GI50: > 100 µM (inactive)
[47]
  GI50: > 100 µM (inactive)
[48]
  GI50: > 100 µM (inactive)
[49]
  GI50: > 100 µM (inactive)
[50]
  GI50: > 100 µM (inactive)
[51]
  GI50: > 100 µM (inactive)
[52]
  GI50: > 100 µM (inactive)
[53]
  GI50: > 100 µM (inactive)
[54]
  GI50: > 100 µM (inactive)
[55]
  GI50: > 100 µM (inactive)

## CC(C)(O)c1cc2c(cc1C(C)(C)O)-c1ccccc1-2
[1]
  GI50: > 100 µM (inactive)
[2]
  GI50: > 100 µM (inactive)
[3]
  GI50: > 100 µM (inactive)
[4]
  GI50: > 100 µM (inactive)
[6]
  GI50: > 100 µM (inactive)
[7]
  GI50: 43.8 µM (inactive)
[8]
  GI50: > 100 µM (inactive)
[9]
  GI50: > 100 µM (inactive)
[11]
  GI50: > 100 µM (inactive)
[12]
  GI50: > 100 µM (inactive)
[13]
  GI50: > 100 µM (inactive)
[14]
  GI50: > 100 µM (inactive)
[15]
  GI50: > 100 µM (inactive)
[17]
  GI50: 29.6 µM (inactive)
[18]
  GI50: > 100 µM (inactive)
[19]
  GI50: > 100 µM (inactive)
[20]
  GI50: > 100 µM (inactive)
[21]
  GI50: > 100 µM (inactive)
[22]
  GI50: 71.9 µM (inactive)
[23]
  GI50: > 100 µM (inactive)
[24]
  GI50: > 100 µM (inactive)
[25]
  GI50: > 100 µM
[26]
  GI50: 59.7 µM (inactive)
[56]
  GI50: 29.2 µM (inactive)
[27]
  GI50: > 100 µM (inactive)
[57]
  GI50: > 100 µM (inactive)
[28]
  GI50: > 100 µM (inactive)
[29]
  GI50: > 100 µM (inactive)
[30]
  GI50: > 100 µM (inactive)
[31]
  GI50: > 100 µM (inactive)
[32]
  GI50: 67.1 µM (inactive)
[34]
  GI50: > 100 µM (inactive)
[35]
  GI50: > 100 µM (inactive)
[37]
  GI50: 85.3 µM (inactive)
[38]
  GI50: > 100 µM (inactive)
[39]
  GI50: > 100 µM (inactive)
[40]
  GI50: > 100 µM (inactive)
[41]
  GI50: > 100 µM (inactive)
[42]
  GI50: > 100 µM (inactive)
[43]
  GI50: > 100 µM (inactive)
[44]
  GI50: > 100 µM (inactive)
[45]
  GI50: > 100 µM (inactive)
[46]
  GI50: > 100 µM (inactive)
[47]
  GI50: > 100 µM (inactive)
[48]
  GI50: > 100 µM (inactive)
[49]
  GI50: > 100 µM (inactive)
[50]
  GI50: > 100 µM (inactive)
[51]
  GI50: 79.8 µM (inactive)
[58]
  GI50: 17.9 µM (inactive)
[53]
  GI50: > 100 µM (inactive)
[54]
  GI50: > 100 µM (inactive)
[55]
  GI50: 36.2 µM (inactive)

## COC(=O)C1C(O)C(C)C(=O)C(C)/C=C\C=C(C)C(=O)Nc2c(C)c(OC(C)=O)c3c(c2O)C(=O)C(C)=C2OCOC(=C23)C(C)=CC(C)(O)C(O)C(C)C1O (stereo not drawn)
[1]
  GI50: 25.2 µM (inactive)
[2]
  GI50: > 100 µM (inactive)
[3]
  GI50: 21 µM (inactive)
[4]
  GI50: > 100 µM (inactive)
[5]
  GI50: 24.9 µM (inactive)
[6]
  GI50: 32.7 µM (inactive)
[7]
  GI50: 99.8 µM (inactive)
[8]
  GI50: 20 µM (inactive)
[9]
  GI50: 20.2 µM (inactive)
[10]
  GI50: > 100 µM (inactive)
[11]
  GI50: 46.9 µM (inactive)
[12]
  GI50: 14.5 µM (inactive)
[13]
  GI50: 25.1 µM (inactive)
[14]
  GI50: 27.4 µM (inactive)
[15]
  GI50: 25.1 µM (inactive)
[16]
  GI50: 17.5 µM (inactive)
[17]
  GI50: 37.4 µM (inactive)
[18]
  GI50: 44.2 µM (inactive)
[19]
  GI50: 24.9 µM (inactive)
[20]
  GI50: 15 µM (inactive)
[22]
  GI50: 31.1 µM (inactive)
[23]
  GI50: 39.2 µM (inactive)
[24]
  GI50: 42.4 µM (inactive)
[25]
  GI50: 21.6 µM
[26]
  GI50: 65.2 µM (inactive)
[56]
  GI50: 49 µM (inactive)
[27]
  GI50: 46.7 µM (inactive)
[57]
  GI50: 33.3 µM (inactive)
[28]
  GI50: 30.3 µM (inactive)
[29]
  GI50: 29.4 µM (inactive)
[30]
  GI50: 33.8 µM (inactive)
[31]
  GI50: 22.2 µM (inactive)
[32]
  GI50: 62.2 µM (inactive)
[33]
  GI50: > 100 µM (inactive)
[34]
  GI50: 18.8 µM (inactive)
[35]
  GI50: 42 µM (inactive)
[37]
  GI50: 26.2 µM (inactive)
[38]
  GI50: > 100 µM (inactive)
[39]
  GI50: 27.4 µM (inactive)
[40]
  GI50: 96.8 µM (inactive)
[41]
  GI50: 25.4 µM (inactive)
[42]
  GI50: 43.5 µM (inactive)
[44]
  GI50: 31.4 µM (inactive)
[45]
  GI50: 36.6 µM (inactive)
[46]
  GI50: 21.7 µM (inactive)
[47]
  GI50: 29 µM (inactive)
[48]
  GI50: 19.1 µM (inactive)
[49]
  GI50: 24.9 µM (inactive)
[50]
  GI50: 33.7 µM (inactive)
[51]
  GI50: 54.6 µM (inactive)
[58]
  GI50: 50.5 µM (inactive)
[52]
  GI50: 29.9 µM (inactive)
[59]
  GI50: 23.5 µM (inactive)
[53]
  GI50: 18.6 µM (inactive)
[54]
  GI50: 47.4 µM (inactive)
[55]
  GI50: 21.7 µM (inactive)
